The Kinase Knowledgebase extract (Sharma et al. 2016)

target: PIK3CG (human) (UniProt P48736); experiment: Assessment of PIK3CG Kinase Activity
Sequence (P48736 whole entry, looked up): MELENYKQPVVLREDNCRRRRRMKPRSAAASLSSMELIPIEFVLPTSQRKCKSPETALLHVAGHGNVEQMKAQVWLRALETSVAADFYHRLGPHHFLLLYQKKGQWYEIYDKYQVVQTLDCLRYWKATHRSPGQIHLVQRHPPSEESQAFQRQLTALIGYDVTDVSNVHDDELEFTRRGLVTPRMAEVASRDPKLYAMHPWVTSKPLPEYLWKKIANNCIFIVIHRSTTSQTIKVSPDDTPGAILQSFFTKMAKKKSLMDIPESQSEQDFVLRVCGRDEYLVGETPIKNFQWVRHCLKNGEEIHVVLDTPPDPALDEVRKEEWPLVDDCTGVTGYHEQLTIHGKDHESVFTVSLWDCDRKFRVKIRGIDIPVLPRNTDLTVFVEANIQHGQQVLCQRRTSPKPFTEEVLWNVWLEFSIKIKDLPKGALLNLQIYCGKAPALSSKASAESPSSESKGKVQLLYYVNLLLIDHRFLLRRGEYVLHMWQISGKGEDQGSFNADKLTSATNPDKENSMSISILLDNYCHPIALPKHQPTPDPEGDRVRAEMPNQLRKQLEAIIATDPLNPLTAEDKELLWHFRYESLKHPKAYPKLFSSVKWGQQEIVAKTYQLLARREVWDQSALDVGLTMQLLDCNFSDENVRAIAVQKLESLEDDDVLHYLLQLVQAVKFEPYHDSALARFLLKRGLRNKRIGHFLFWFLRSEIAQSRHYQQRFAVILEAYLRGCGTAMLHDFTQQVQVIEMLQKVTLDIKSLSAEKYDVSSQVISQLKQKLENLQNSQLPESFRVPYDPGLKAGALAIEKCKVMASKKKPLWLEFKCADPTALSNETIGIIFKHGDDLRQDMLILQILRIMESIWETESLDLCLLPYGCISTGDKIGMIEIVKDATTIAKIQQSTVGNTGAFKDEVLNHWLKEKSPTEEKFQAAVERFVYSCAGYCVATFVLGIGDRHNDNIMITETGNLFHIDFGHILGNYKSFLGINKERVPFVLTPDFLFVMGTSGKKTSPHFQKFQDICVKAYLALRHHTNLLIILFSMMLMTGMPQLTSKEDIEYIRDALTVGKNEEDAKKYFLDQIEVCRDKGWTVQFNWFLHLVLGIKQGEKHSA

| Compound | IC50 |
| --- | --- |
| CC(=O)Nc1nc2c(s1)-c1c(cnn1-c1ccccc1)CC2 | < 800 nM |
| CC(=O)Nc1nc2c(s1)-c1c(cnn1-c1ccc(C(=O)N[C@@H](Cc3c[nH]cn3)C(N)=O)cc1Cl)CC2 | < 800 nM |
| CC(=O)Nc1nc2c(s1)-c1c(cnn1-c1ccc(C(=O)NCCN3CCOCC3)cc1)CC2 | < 800 nM |
| CC(=O)Nc1nc2c(s1)-c1c(cnn1-c1ccc(C(=O)N[C@H](C(N)=O)C(C)C)cc1Cl)CC2 | < 800 nM |
| CC(=O)Nc1nc2c(s1)-c1c(cnn1-c1ccc(C(=O)NCCc3cccnc3)cc1)CC2 | < 800 nM |
| CC(=O)Nc1nc2c(s1)-c1c(cnn1-c1ccc(C(=O)N3CCN(CCO)CC3)cc1)CC2 | < 800 nM |
| CCCC(=O)n1cc2c(n1)-c1sc(NC(C)=O)nc1CC2 | < 800 nM |
| CCN1CCCC1CNCC(=O)Nc1nc2c(s1)-c1c(cnn1-c1ccccc1)CC2 (centres undefined) | < 800 nM |
| CC(=O)Nc1nc2c(s1)-c1nc(N(C)CCN3CCN(C)CC3)ncc1CC2 | < 800 nM |
| CC(=O)Nc1nc2c(s1)-c1nn(-c3ccc(C(=O)NC4CCN(C5CCCC5)CC4)cc3Cl)c(-c3ccco3)c1CC2 | < 800 nM |
| CC(=O)Nc1nc2c(s1)-c1c(cnn1-c1ccc(CC(=O)N(C)CC(=O)N(C)C)cc1)CC2 | < 800 nM |
| CC=Cn1cc2c(n1)-c1sc(NC(C)=O)nc1CC2 | < 800 nM |
| CC(=O)Nc1nc2c(s1)-c1cc([N+](=O)[O-])ccc1CC2 | < 800 nM |
| CC(=O)Nc1nc2c(s1)-c1nn(-c3ccccc3)c(-c3cn(C)cn3)c1CC2 | < 800 nM |
| O=C(Nc1nc2c(s1)-c1c(cnn1-c1ccccc1)C2)N1CCCCC1 | < 800 nM |
| CC(=O)Nc1nc2c(s1)-c1c(cnn1-c1ccc(C(=O)NC3CCC(=O)O3)cc1)CC2 (centres undefined) | < 800 nM |
| CC(=O)Nc1nc2c(s1)-c1nc(-c3ccccc3)ncc1CC2 | < 800 nM |
| CC(=O)Nc1nc2c(s1)-c1c(cnn1-c1ccc(Cl)cc1)CC2 | < 800 nM |
| CNC(=O)Nc1nc2c(s1)-c1nc(N(C)C)ncc1CC2 | < 800 nM |
| CC(=O)Nc1nc2c(s1)-c1nc(NCCCC(=O)O)ncc1CC2 | < 800 nM |
| CC(=O)Nc1nc2c(s1)-c1nc(-c3ccc(C)cc3)ncc1CC2 | < 800 nM |
| CNCCNC(=O)Nc1nc2c(s1)-c1nc(-c3ccccc3)ncc1CC2 | < 800 nM |
| CC(=O)Nc1nc2c(s1)-c1c(cnn1-c1ccc(C(=O)N(C)Cc3ccccc3)cc1)CC2 | < 800 nM |
| CC(=O)Nc1nc2c(s1)-c1nc(-c3ccccc3Cl)nc(O)c1CC2 | < 800 nM |
| CC(=O)Nc1nc2c(s1)-c1c(cnn1-c1ccc(C(=O)N[C@H]3CC[C@@H](N4CCN(c5ccccc5)CC4)CC3)cc1)CC2 | < 800 nM |

| Compound | IC50 |
| --- | --- |
| CC(=O)Nc1nc2c(s1)-c1c(cnn1-c1ccc(C(=O)NC3CCCC3)cc1)CC2 | < 800 nM |
| CC(=O)Nc1nc2c(s1)-c1c(cnn1-c1ccc(C(=O)N3C[C@@H](C)O[C@@H](C)C3)cc1)CC2 | < 800 nM |
| CC(=O)Nc1nc2c(s1)-c1c(cnn1-c1ccc(C(=O)N[C@@H](CCCNC(=N)N)C(N)=O)cc1Cl)CC2 | < 800 nM |
| CC(=O)Nc1nc2c(s1)-c1c(cnn1-c1ccc(C(=O)NCCN3CCNC3=O)cc1)CC2 | < 800 nM |
| CN(C)c1ncc2c(n1)-c1sc(NC(N)=O)nc1CC2 | < 800 nM |
| CC(=O)Nc1nc2c(s1)-c1c(cnn1-c1ccc(C(=O)N[C@H](CCC(=O)O)C(N)=O)cc1Cl)CC2 | < 800 nM |
| CC(=O)Nc1nc2c(s1)-c1c(cnn1-c1ccc(C(=O)NCCCCCCN)cc1)CC2 | < 800 nM |
| CC(=O)Nc1nc2c(s1)-c1c(c(N)nn1-c1ccccc1)CC2 | < 800 nM |
| CC(=O)Nc1nc2c(s1)-c1c(cnn1-c1ccc(C(=O)N3CCN(NC(=O)c4ccc(F)cc4)CC3)cc1)CC2 | < 800 nM |
| CC(=O)Nc1nc2c(s1)-c1nn(-c3ccccc3F)c(-c3ccco3)c1CC2 | < 800 nM |
| CC(=O)Nc1nc2c(s1)-c1nn(C(=O)c3ccccc3Cl)cc1CC2 | < 800 nM |
| CC(=O)Nc1nc2c(s1)-c1c(c(C(N)=O)nn1-c1ccccc1Cl)CC2 | < 800 nM |
| CC(=O)Nc1nc2c(s1)-c1nc(C(C)C)nc(O)c1CC2 | < 800 nM |
| CC(C)c1nn(-c2ccccc2Cl)c2c1CCc1nc(NC(N)=O)sc1-2 | < 800 nM |
| Cc1ccccc1-n1ncc2c1C1SC(N)=NC1C2 (centres undefined) | < 800 nM |
| CC(=O)Nc1nc2c(s1)-c1c(cnn1-c1ccc(C(=O)N[C@H](Cc3cc4ccccc4[nH]3)C(N)=O)cc1Cl)CC2 | < 800 nM |
| CC(=O)Nc1nc2c(s1)-c1c(cnn1-c1ccc(C(=O)N(C)CCO)cc1)CC2 | < 800 nM |
| CCn1ncc2c1-c1sc(NC(C)=O)nc1CC2 | < 800 nM |
| CC(=O)Nc1nc2c(s1)-c1c(c(C(C)C)nn1-c1ccc(C(=O)N[C@H]3CC[C@@H](N4CCCC4)CC3)cc1Cl)CC2 | < 800 nM |
| CCCC(=O)n1ncc2c1-c1sc(NC(C)=O)nc1CC2 | < 800 nM |
| CC(=O)Nc1nc2c(s1)-c1nn(C(N)=O)cc1CC2 | < 800 nM |
| COCc1nn(-c2ccc(C(=O)N[C@H]3CC[C@H](N4CCCC4)CC3)cc2Cl)c2c1CCc1nc(NC(C)=O)sc1-2 | < 800 nM |
| CC=Cn1ncc2c1-c1sc(NC(C)=O)nc1CC2 | < 800 nM |
| COCc1nn(-c2ccc(C(=O)N(C)C3CCN(C)CC3)cc2Cl)c2c1CCc1nc(NC(C)=O)sc1-2 | < 800 nM |
